Laboratory results reported in EP4603105A1, “PHARMACEUTICAL COMPOSITION CONTAINING CYCLIC COMPOUND HAVING SELECTIVE KRAS INHIBITORY EFFECT AGAINST HRAS AND NRAS” (CHUGAI SEIYAKU KABUSHIKI KAISHA, priority 2022, dated 2024).
Where a SMILES comes first, the peptide text is derived from it. Bridges are numbered along the chain shown (N, C = ends). [ ]: non-standard residue; d: D form. The star is where a group is joined. hPhe(3-Cl-4-CF3) = N[C@@H](CCc1ccc(C(F)(F)F)c(Cl)c1)C(=O)O; NPrPhe(4-CF3) = CCCN[C@@H](Cc1ccc(C(F)(F)F)cc1)C(=O)O; NEtPhe(4-CF3) = CCN[C@@H](Cc1ccc(C(F)(F)F)cc1)C(=O)O; hPhe(3,4-Cl2) = N[C@@H](CCc1ccc(Cl)c(Cl)c1)C(=O)O; NMeGly(cPent) = CN[C@H](C(=O)O)C1CCCC1; cisHyp = O=C(O)[C@@H]1C[C@H](O)CN1; Hyp = O=C(O)[C@@H]1C[C@@H](O)CN1; NMeD = CN[C@@H](CC(=O)O)C(=O)O; NMeL = CN[C@@H](CC(C)C)C(=O)O; Ac6c = NC1(C(=O)O)CCCCC1; Morpholide = C1CN(*)CCO1; NMeA = CN[C@@H](C)C(=O)O; Ac5c = NC1(C(=O)O)CCCC1; Aze = O=C(O)[C@@H]1CCN1; Ethyl(2,2-F2) = FC(F)C*; Sar = CNCC(=O)O

Experiments:
[1] = target: HRAS wild-type protein (Homo sapiens, UniProt P01112); assay: Binding to HRAS by surface plasmon resonance (SPR), KD and KD ratio to KRAS; settings: ratio of KD for HRAS wild-type protein to KD for KRAS
Sequence of HRAS wild-type protein (P01112 whole entry): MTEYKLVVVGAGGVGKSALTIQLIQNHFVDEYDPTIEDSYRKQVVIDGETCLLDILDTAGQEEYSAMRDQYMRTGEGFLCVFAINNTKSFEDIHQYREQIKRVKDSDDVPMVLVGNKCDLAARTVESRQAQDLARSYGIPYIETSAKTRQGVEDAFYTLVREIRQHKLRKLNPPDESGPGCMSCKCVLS
Outline: (§1)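 Affinity is measured by surface plasmon resonance at 30°C against captured, GDP-loaded RAS carrying a biotinylated Avi tag. Compounds are titrated by single-cycle kinetics, and KD comes from a 1:1 fit.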

[2] = tested on: human lung cancer strain NCI-H441; format: cell-based
Outline: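 Readout: […] after the ATP-based reagent. Compound: serial dilutions in dimethyl sulfoxide.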

[3] = target: GDP-bound NRAS wild-type protein (Homo sapiens, UniProt P01111); assay: Binding to NRAS by surface plasmon resonance (SPR), KD and KD ratio to KRAS; settings: ratio of KD for GDP-bound NRAS wild-type protein to KD for KRAS
Sequence of GDP-bound NRAS wild-type protein (P01111 whole entry): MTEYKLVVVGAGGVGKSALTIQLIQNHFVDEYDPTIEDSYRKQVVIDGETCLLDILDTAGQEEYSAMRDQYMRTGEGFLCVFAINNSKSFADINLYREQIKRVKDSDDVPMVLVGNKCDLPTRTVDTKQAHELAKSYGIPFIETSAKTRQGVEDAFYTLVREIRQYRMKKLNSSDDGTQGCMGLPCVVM
Outline: as §1

Row | Structure (SMILES) | IC50 [2] | HRAS /KRAS [1] | NRAS /KRAS [3]
1 | CCCN1C(=O)CN(C)C(=O)CN(C)C(=O)[C@H]([C@@H](C)CC)NC(=O)[C@H](CC(C)C)N(C)C(=O)C[C@@H](C(=O)N2CCOCC2)N(C)C(=O)[C@H](C2CCCC2)N(C)C(=O)C2(CCCC2)NC(=O)[C@@H]2C[C@@H](OCC)CN2C(=O)[C@H](CCc2ccc(C(F)(F)F)c(Cl)c2)NC(=O)CN(C)C(=O)[C@@H]1Cc1ccc(C(F)(F)F)cc1 [PP0233] ([NMeL]I[Sar][Sar][NPrPhe(4-CF3)][Sar][hPhe(3-Cl-4-CF3)][Hyp](Et)[Ac5c][NMeGly(cPent)][NMeD]-Morpholide; lactam N-11) | 1.6 nM | C (A compound having a KD ratio of 0.1 or more and less than 3 is denoted as C) | B (a compound having 3 or more and less than 10 is denoted as B)
2 | CCCN1C(=O)[C@@H]2CCN2C(=O)[C@H](C)N(C)C(=O)[C@H]([C@@H](C)CC)NC(=O)[C@H](CC(C)C)N(C)C(=O)C[C@@H](C(=O)N2CCOCC2)N(C)C(=O)[C@H](C2CCCC2)N(C)C(=O)C2(CCCC2)NC(=O)[C@@H]2C[C@@H](O)CN2C(=O)[C@H](CCc2ccc(C(F)(F)F)c(Cl)c2)NC(=O)CN(C)C(=O)[C@@H]1Cc1ccc(C(F)(F)F)cc1 [PP0239] ([NMeL]I[NMeA][Aze][NPrPhe(4-CF3)][Sar][hPhe(3-Cl-4-CF3)][Hyp][Ac5c][NMeGly(cPent)][NMeD]-Morpholide; lactam N-11) | 6.2 nM | B (a compound having 3 or more and less than 10 is denoted as B) | C (A compound having a KD ratio of 0.1 or more and less than 3 is denoted as C)
3 | CCCN1C(=O)[C@@H]2CCN2C(=O)[C@H](C)N(C)C(=O)[C@H]([C@@H](C)CC)NC(=O)[C@H](CC(C)C)N(C)C(=O)C[C@@H](C(=O)N2CCOCC2)N(C)C(=O)[C@H](C2CCCC2)N(C)C(=O)C2(CCCC2)NC(=O)[C@@H]2C[C@H](OCC)CN2C(=O)[C@H](CCc2ccc(C(F)(F)F)c(Cl)c2)NC(=O)CN(C)C(=O)[C@@H]1Cc1ccc(C(F)(F)F)cc1 [PP0242] ([NMeL]I[NMeA][Aze][NPrPhe(4-CF3)][Sar][hPhe(3-Cl-4-CF3)][cisHyp](Et)[Ac5c][NMeGly(cPent)][NMeD]-Morpholide; lactam N-11) | 5 nM | C (A compound having a KD ratio of 0.1 or more and less than 3 is denoted as C) | C (A compound having a KD ratio of 0.1 or more and less than 3 is denoted as C)
4 | CCCN1C(=O)CN(C)C(=O)CN(C)C(=O)[C@H]([C@@H](C)CC)NC(=O)[C@H](CC(C)C)N(C)C(=O)C[C@@H](C(=O)N2CCOCC2)N(C)C(=O)[C@H](C2CCCC2)N(C)C(=O)C2(CCCC2)NC(=O)[C@@H]2C[C@@H](OCC(F)F)CN2C(=O)[C@H](CCc2ccc(C(F)(F)F)c(Cl)c2)NC(=O)CN(C)C(=O)[C@@H]1Cc1ccc(C(F)(F)F)cc1 [PP0246] ([NMeL]I[Sar][Sar][NPrPhe(4-CF3)][Sar][hPhe(3-Cl-4-CF3)][Hyp](Ethyl(2,2-F2))[Ac5c][NMeGly(cPent)][NMeD]-Morpholide; lactam N-11) | 1.8 nM | C (A compound having a KD ratio of 0.1 or more and less than 3 is denoted as C) | B (a compound having 3 or more and less than 10 is denoted as B)

Continued, in another order:

Row | IC50 [2] | Structure (SMILES) | HRAS /KRAS [1] | NRAS /KRAS [3]
5 | 4.7 nM | CCCN1C(=O)CN(C)C(=O)CN(C)C(=O)[C@H]([C@@H](C)CC)NC(=O)[C@H](CC(C)C)N(C)C(=O)C[C@@H](C(=O)N2CCOCC2)N(C)C(=O)[C@H](C2CCCC2)N(C)C(=O)C2(CCCC2)NC(=O)[C@@H]2CCCN2C(=O)[C@H](CCc2ccc(Cl)c(Cl)c2)NC(=O)CN(C)C(=O)[C@@H]1Cc1ccc(C(F)(F)F)cc1 [PP0232] ([NMeL]I[Sar][Sar][NPrPhe(4-CF3)][Sar][hPhe(3,4-Cl2)]P[Ac5c][NMeGly(cPent)][NMeD]-Morpholide; lactam N-11) | B (a compound having 3 or more and less than 10 is denoted as B) | B (a compound having 3 or more and less than 10 is denoted as B)
6 | 20.3 nM | CC[C@H](C)[C@@H]1NC(=O)[C@H](CC(C)C)N(C)C(=O)C[C@@H](C(=O)N2CCOCC2)N(C)C(=O)[C@H](C2CCCC2)N(C)C(=O)C2(CCCCC2)NC(=O)[C@@H]2CCCN2C(=O)[C@H](CCc2ccc(C(F)(F)F)c(Cl)c2)NC(=O)CN(C)C(=O)[C@H](Cc2ccc(C(F)(F)F)cc2)N(CC)C(=O)CN(C)C(=O)CN(C)C1=O [PP0236] ([NMeL]I[Sar][Sar][NEtPhe(4-CF3)][Sar][hPhe(3-Cl-4-CF3)]P[Ac6c][NMeGly(cPent)][NMeD]-Morpholide; lactam N-11) | C (A compound having a KD ratio of 0.1 or more and less than 3 is denoted as C) | B (a compound having 3 or more and less than 10 is denoted as B)
7 | 4 nM | CC[C@H](C)[C@@H]1NC(=O)[C@H](CC(C)C)N(C)C(=O)C[C@@H](C(=O)N2CCOCC2)N(C)C(=O)[C@H](C2CCCC2)N(C)C(=O)C2(CCCC2)NC(=O)[C@@H]2CCCN2C(=O)[C@H](CCc2ccc(Cl)c(Cl)c2)NC(=O)CN(C)C(=O)[C@H](Cc2ccc(C(F)(F)F)cc2)N(CC)C(=O)CN(C)C(=O)CN(C)C1=O [PP0237] ([NMeL]I[Sar][Sar][NEtPhe(4-CF3)][Sar][hPhe(3,4-Cl2)]P[Ac5c][NMeGly(cPent)][NMeD]-Morpholide; lactam N-11) | C (A compound having a KD ratio of 0.1 or more and less than 3 is denoted as C) | B (a compound having 3 or more and less than 10 is denoted as B)
8 | 4.9 nM | CCCN1C(=O)CN(C)C(=O)CN(C)C(=O)[C@H]([C@@H](C)CC)NC(=O)[C@H](CC(C)C)N(C)C(=O)C[C@@H](C(=O)N2CCOCC2)N(C)C(=O)[C@H](C2CCCC2)N(C)C(=O)C2(CCCC2)NC(=O)[C@@H]2C[C@@H](O)CN2C(=O)[C@H](CCc2ccc(C(F)(F)F)c(Cl)c2)NC(=O)CN(C)C(=O)[C@@H]1Cc1ccc(C(F)(F)F)cc1 [PP0241] ([NMeL]I[Sar][Sar][NPrPhe(4-CF3)][Sar][hPhe(3-Cl-4-CF3)][Hyp][Ac5c][NMeGly(cPent)][NMeD]-Morpholide; lactam N-11) | C (A compound having a KD ratio of 0.1 or more and less than 3 is denoted as C) | B (a compound having 3 or more and less than 10 is denoted as B)
9 | 23.2 nM | CCCN1C(=O)CN(C)C(=O)CN(C)C(=O)[C@H]([C@@H](C)CC)NC(=O)[C@H](CC(C)C)N(C)C(=O)C[C@@H](C(=O)N2CCOCC2)N(C)C(=O)[C@H](C2CCCC2)N(C)C(=O)C2(CCCC2)NC(=O)[C@@H]2C[C@H](OCC)CN2C(=O)[C@H](CCc2ccc(C(F)(F)F)c(Cl)c2)NC(=O)CN(C)C(=O)[C@@H]1Cc1ccc(C(F)(F)F)cc1 [PP0243] ([NMeL]I[Sar][Sar][NPrPhe(4-CF3)][Sar][hPhe(3-Cl-4-CF3)][cisHyp](Et)[Ac5c][NMeGly(cPent)][NMeD]-Morpholide; lactam N-11) | C (A compound having a KD ratio of 0.1 or more and less than 3 is denoted as C) | B (a compound having 3 or more and less than 10 is denoted as B)
